Measured values as given in patent US9040498B2, “1,2,3-Triazolyl purine derivatives” (RESEARCH FOUNDATION OF THE CITY UNIVERSITY OF NEW YORK, priority 2012, dated 2015).
Like-named read-outs stand apart in the source and are kept apart here.

Columns and labels:
[1] = system: HEL cell; assay: HEL cell effects: cell growth; conditions: read-out: HEL cell effects cell growth (IC50); concentration required to reduce cell growth by 50%
[2] = system: p53KO HCT116 cancer cell line; assay: GI50 against p53KO HCT116 cancer cell line; conditions: read-out: GI50 p53KO
[3] = system: HEL cell; assay: HEL cell effects: cell morphology (minimum cytotoxic concentration); conditions: minimum cytotoxic concentration causing microscopically detectable alteration of cell morphology
[4] = system: paclitaxel-resistant (PTX10) ovarian cancer cell line; assay: GI50 against paclitaxel-resistant ovarian cancer cell line PTX10; conditions: read-out: GI50 PTX10
[5] = system: ovarian (1A9) cancer cell line; assay: GI50 against ovarian cancer cell line 1A9; conditions: read-out: GI50 1A9
[6] = system: colorectal (HCT116) cancer cell line; assay: GI50 against colorectal cancer cell line HCT116; conditions: read-out: GI50 HCT116
[7] = system: paclitaxel-resistant (PTX22) ovarian cancer cell line; assay: GI50 against paclitaxel-resistant ovarian cancer cell line PTX22; conditions: read-out: GI50 PTX22
[8] = system: CMV AD-169 strain; assay: Anti-CMV activity in HEL cell cultures, AD-169 strain; format: cell-based, cytomegalovirus; conditions: HEL cell cultures, reduce virus plaque formation by 50%, virus input 100 PFU
[9] = system: cytomegalovirus (CMV); assay: Anti-CMV activity in HEL cells (both strains); format: cell-based; conditions: for anti-CMV activity (in words): HEL cells
[10] = system: CMV Davis strain; assay: Anti-CMV activity in HEL cell cultures, Davis strain; format: cell-based, cytomegalovirus; conditions: reduce virus plaque formation by 50%
[11] = system: vesicular stomatitis virus (VSV); format: cell-based; conditions: human cervix carcinoma HeLa cell cultures; read-out: anti-vesicular stomatitis virus (VSV) activity
[12] = system: HeLa and HEL cell cultures
[13] = system: murine leukemia L1210, human lymphocyte CEM, and HeLa cells; assay: Cytostatic activity against L1210, CEM and HeLa cells; format: cell-based; conditions: for cytostatic activity (in words): L1210, CEM, HeLa; for IC50: range over L1210 (48 h), CEM (72 h), HeLa (96 h)
Protocol: The cytostatic effects of the test compounds on murine leukemia cells (L1210), human T-lymphocyte cells (CEM) and human cervix carcinoma cells (HeLa) were evaluated as follows: an appropriate number of cells suspended in growth medium were allowed to proliferate in 200-μL-wells of 96-well-microtiter plates in the presence of variable amounts of test compounds at 37° C. in a humidified CO2-controlled atmosphere. After 48 h (L1210), 72 h (CEM) or 96 h (HeLa), the number of cells was counted in a Coulter counter. The IC50 value is defined as the concentration required to inhibit cell proliferation by 50%.

[14] = system: vesicular stomatitis virus (VSV); format: cell-based; conditions: human embryonic lung (HEL) fibroblast cell cultures
[15] = system: HeLa
[16] = system: feline kidney CRFK
[17] = system: canine kidney MDCK
[18] = system: green monkey kidney Vero
[19] = paclitaxel-resistant ovarian PTX10, four days
[20] = paclitaxel-resistant ovarian PTX22, four days
[21] = HEL cell cultures, virus input 100 PFU
[22] = Human betaherpesvirus 5, HEL cell cultures, virus input 100 PFU

Compound | IC50 [1] | GI50 ([2]; p53KO HCT116, four days) | HEL cell effects cell morphology (MDC) [3] | GI50 [4, 19] | GI50 ([5]; ovarian 1A9, four days) | GI50 ([6]; colorectal HCT116, four days) | GI50 [7, 20] | EC50 [8] | anti-CMV activity (in words) [9] | EC50 [10, 21] | cytostatic activity (in words) [13] | IC50 [13] | other results
2-[4-(Ferrocenyl)-1,2,3-triazol-1H-yl]-2′-deoxyinosine [Compound 29] | > 200 µM | > 50 µM | >200 μM | > 50 µM | 41.6 µM | > 50 µM | 18 µM | – | – | – | – | – | –
2-[4-(Ferrocenyl)-1,2,3-triazol-1H-yl]inosine [Compound 22] | 123 µM | > 50 µM | 2190 μM | > 50 µM | 29.7 µM | > 50 µM | 12.9 µM | 120 µM | marginal activity | 123 µM | – | – | –
OC[C@H]1O[C@@H](n2cnc3c(O)nc(-n4cc(-c5ccccc5)nn4)nc32)[C@H](O)[C@@H]1O [Compound 17, 2-[4-(Phenyl)-1,2,3-triazol-1H-yl]inosine] | – | > 50 µM | 240 μM | > 50 µM | 22.8 µM | > 50 µM | 4.76 µM | > 50 µM | – | > 50 µM | most cytostatic | 34 to 124 µM | EC50 [11]: 27 ± 2.4 µM; toxicity observed [12]: 100 to 240 µM; anti-VSV activity (in words) [14]: could not be confirmed
Cc1ccc(-c2cn(-c3nc(O)c4ncn([C@@H]5O[C@H](CO)[C@@H](O)[C@H]5O)c4n3)nn2)cc1 [Compound 18, 2-[4-(4-Methylphenyl)-1,2,3-triazol-1H-yl]inosine] | – | > 50 µM | >240 μM | > 50 µM | 38 µM | > 50 µM | 13.4 µM | 118 µM | marginal activity | 151 µM | – | – | –
COc1ccc(-c2cn(-c3nc(O)c4ncn([C@@H]5O[C@H](CO)[C@@H](O)[C@H]5O)c4n3)nn2)cc1 [Compound 19, 2-[4-(4-Methoxyphenyl)-1,2,3-triazol-1H-yl]inosine] | > 230 µM | > 50 µM | >230 μM | > 50 µM | 29.5 µM | > 50 µM | 8.56 µM | – | – | – | – | – | –
O=C1c2ccccc2C(=O)N1Cc1cn(-c2nc(O)c3ncn([C@@H]4O[C@H](CO)[C@@H](O)[C@H]4O)c3n2)nn1 [Compound 21, 2-[4-(N-Phthalimidomethyl)-1,2,3-triazol-1H-yl]inosine] | > 200 µM | > 50 µM | >200 μM | > 50 µM | 6.32 µM | > 50 µM | 14.1 µM | – | – | > 200 µM | – | – | –
CCCCc1cn(-c2nc(O)c3ncn([C@@H]4O[C@H](CO)[C@@H](O)[C@H]4O)c3n2)nn1 [Compound 23, 2-(4-n-Butyl-1,2,3-triazol-1H-yl)inosine] | > 250 µM | > 50 µM | – | > 50 µM | 37 µM | > 50 µM | 28.1 µM | 73 µM | somewhat more pronounced | 39 µM | – | – | EC50 ([9]; range over the CMV strains, read-out: EC50 against CMV in HEL cells): 39 to 73 µM
OC[C@H]1O[C@@H](n2cnc3c(O)nc(-n4cc(-c5ccccc5)nn4)nc32)C[C@@H]1O [Compound 25, 2-[4-(Phenyl)-1,2,3-triazol-1H-yl]-2′-deoxyinosine] | 188 µM | > 50 µM | >250 μM | > 50 µM | 31 µM | > 50 µM | 14.8 µM | – | marginal activity | – | – | – | EC50 ([10]; […]): 158 µM
OC[C@H]1O[C@@H](n2cnc3c(N4CCOCC4)nc(-n4cc(-c5ccccc5)nn4)nc32)[C@@H](O)C1O (stereo partly drawn) [Compound 34, 6-(Morpholin-4-yl)-2-(4-phenyl-1,2,3-triazol-1H-yl)-9-(β-D-ribofuranosyl)purine] | – | – | 240 μM | – | – | – | – | – | – | – | poorly cytostatic | 98 to 185 µM | minimum detectable morphology-altering (cytotoxic) concentration (MCC) ([15]; HeLa (first mention)): 42 μM; minimum detectable morphology-altering (cytotoxic) concentration (MCC) ([15]; HeLa cells): ≥ 40 μM; EC50 ([8]; Human betaherpesvirus 5, AD169): > 40 µM; GI50 ([2]; Homo sapiens, HCT-116, 96 h): 10.4 µM; minimum detectable morphology-altering (cytotoxic) concentration (MCC) [16]: 83 μM; minimum detectable morphology-altering (cytotoxic) concentration (MCC) [17]: 8.3 μM; EC50 [10, 22]: > 40 µM; GI50 ([4]; PTX10, 96 h): 11.7 µM; GI50 ([5]; 96 h): 0.18 µM; minimum detectable morphology-altering (cytotoxic) concentration (MCC) [18]: 210 μM; GI50 ([6]; Homo sapiens, HCT-116, 96 h): 3.7 µM; GI50 ([7]; 96 h): 0.95 µM
OC[C@H]1O[C@@H](n2cnc3c(NCc4ccccc4)nc(-n4cc(-c5ccccc5)nn4)nc32)[C@@H](O)C1O (some centres unmarked) [Compound 35, 6-(N-Benzyl)-2-[4-(phenyl)-1,2,3-triazol-1H-yl]adenosine] | – | – | 200 μM | – | – | – | – | – | – | – | poorly cytostatic | 90 to 120 µM | EC50 ([8]; Human betaherpesvirus 5, AD169): > 40 µM; GI50 ([2]; Homo sapiens, HCT-116, 96 h): > 50 µM; EC50 [10, 22]: > 40 µM; GI50 ([4]; PTX10, 96 h): > 50 µM; GI50 ([5]; 96 h): 5 µM; GI50 ([6]; Homo sapiens, HCT-116, 96 h): 43.6 µM; GI50 ([7]; 96 h): 24.5 µM
